Reference: patent US20240254143A1, “OREXIN RECEPTOR AGONISTS AND USES THEREOF” (JAZZ PHARMACEUTICALS IRELAND LIMITED, priority 2021, published 2024)

What follows are compounds tested against T1, human recombinant OX2 (hOX2) receptor (Homo sapiens, UniProt O43614) (assay: IP-1 accumulation assay (IP-One HTRF) in hOX2-CHO cells). Details: 60 min at 37° C., mean of at least two independent experiments, read-out: EC50_OX2R Category.
T1 construct: host or cells: CHO cells
T1 sequence (O43614 1-444): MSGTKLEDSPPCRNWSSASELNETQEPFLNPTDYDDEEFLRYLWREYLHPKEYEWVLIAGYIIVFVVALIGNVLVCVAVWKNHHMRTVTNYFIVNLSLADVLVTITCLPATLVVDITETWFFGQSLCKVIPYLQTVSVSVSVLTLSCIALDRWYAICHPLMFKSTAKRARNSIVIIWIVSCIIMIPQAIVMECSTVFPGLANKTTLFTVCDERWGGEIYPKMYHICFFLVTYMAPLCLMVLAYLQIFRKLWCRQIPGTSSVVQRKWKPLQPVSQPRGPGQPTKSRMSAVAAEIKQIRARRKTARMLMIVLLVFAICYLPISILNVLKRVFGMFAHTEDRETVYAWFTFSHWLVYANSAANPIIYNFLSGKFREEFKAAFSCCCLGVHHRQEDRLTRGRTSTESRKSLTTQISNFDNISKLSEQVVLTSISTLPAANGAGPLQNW
Assay type: cell-based
Description: Example 94: IP-1 Accumulation Assay
The accumulation of Inositol-1 Monophosphate (IP-1) was measured using IP-One HTRF® Terbium cryptate based assay (Cisbio) in human recombinant OX1 (hOX1) and at OX2 (hOX2) receptors expressed in CHO cells (DiscoverX) according to the manufacturer's instructions for cells tested in suspension.
hOX1-CHO and hOX2-CHO cells were seeded into white 384-well plates at a density of 20,000 cells/well in Hank's Balanced Salt Solution (HBSS) containing 20 mM HEPES pH 7.4, 50 mM, LiCl and 0.1% and Bovine Serum Albumin (BSA).
Compounds of the present disclosure were tested in a 11 points concentration response curve (CRC) serially diluted in neat DMSO at 200 fold concentrations and added by Echo acoustic liquid handling (Labcyte) to the cells (0.5% DMSO final in the assay). After 60 min of incubation at 37° C. detection reagents, IP1-d2 tracer and anti-IP1-cryptate were diluted in lysis buffer according to the manufacturer's descriptions and added to the cells.
Following 60 mi incubation at room temperature, time-resolved fluorescence (HTRF) was measured at 615 nm and 665 nm by Envision Multilabel reader (Perkin Elmer) and the HTRF ratio (A665/A615×10^4) was calculated.
The IP-1 accumulation response was expressed as percentage of the maximal OX-A response.
Curve fitting and EC50 estimations were carried out using a four-parameter logistic model using XLfit Software. Mean data of EC50 are calculated from at least two independent experiments performed in duplicates.
An EC50 greater than 10 µM was found for COC(=O)N1CCCC2(CCC(=O)N2)C1Cc1cccc(-c2ccccc2)c1 (mixture of isomers) [Example 28, Methyl 6-({[1,1′-biphenyl]-3-yl}methyl)-2-oxo-1,7-diazaspiro[4.5]decane-7-carboxylate] in this work. An EC50 of less than 0.1 µM was found for CCNC(=O)N1CCCC2(COCC(=O)N2)C1CO[C@H]1CC[C@@H](c2ccccc2)CC1 (mixture of isomers) [Example 1, (CIS)-N-ethyl-2-oxo-7-({[(CIS)-4-phenylcyclohexyl]oxy}methyl)-4-oxa-1,8-diazaspiro[5.5]undecane-8-carboxamide] in this work. An EC50 of 1 to 10 µM was found for COC(=O)N1CCCC2(COCC(=O)N2)C1CO[C@H]1CC[C@@H](c2ccccc2)CC1 (mixture of isomers) [Example 4, Methyl (CIS)-2-oxo-7-({[(CIS)-4-phenylcyclohexyl]oxy}methyl)-4-oxa-1,8-diazaspiro[5.5]undecane-8-carboxylate] in this work. An EC50 of 0.1 to 1 µM was found for O=C1COCC2(CCCN(C(=O)C3CC3)C2CO[C@H]2CC[C@@H](c3ccccc3)CC2)N1 (mixture of isomers) [Example 7, (CIS)-8-cyclopropanecarbonyl-7-({[(CIS)-4-phenylcyclohexyl]oxy}methyl)-4-oxa-1,8-diazaspiro[5.5]undecan-2-one] in this work. An EC50 of 1 to 10 µM was found for CCNC(=O)N1CCCC2(COC(=O)N2)C1CO[C@H]1CC[C@@H](c2ccccc2)CC1 (mixture of isomers) [Example 10] in this work. An EC50 of 1 to 10 µM was found for CCNC(=O)N1CCC2(COCC(=O)N2)C1CO[C@H]1CC[C@@H](c2ccccc2)CC1 (mixture of isomers) [Example 15, (CIS)-N-ethyl-7-oxo-1-({[(CIS)-4-phenylcyclohexyl]oxy}methyl)-9-oxa-2,6-diazaspiro[4.5]decane-2-carboxamide] in this work. An EC50 greater than 10 µM was found for CCNC(=O)N1CCC2(COC(=O)N2)C1CO[C@H]1CC[C@@H](c2ccccc2)CC1 (mixture of isomers) [Example 18, (CIS)-N-ethyl-2-oxo-6-({[(CIS)-4-phenylcyclohexyl]oxy}methyl)-3-oxa-1,7-diazaspiro[4.4]nonane-7-carboxamide] in this work. An EC50 of 1 to 10 µM was found for CCNC(=O)N1CCC[C@@]2(CCOC(=O)N2)[C@@H]1Cc1cccc(-c2ccccc2)c1 (racemic) [Example 24, (CIS)-7-({[1,1′-biphenyl]-3-yl}methyl)-N-ethyl-2-oxo-3-oxa-1,8-diazaspiro[5.5]undecane-8-carboxamide] in this work. An EC50 greater than 10 µM was found for CCNC(=O)N1CCC[C@@]2(CCOC(=O)N2)[C@H]1Cc1cccc(-c2ccccc2)c1 (racemic) [Example 25, (Trans)-7-({[1,1′-biphenyl]-3-yl}methyl)-N-ethyl-2-oxo-3-oxa-1,8-diazaspiro[5.5]undecane-8-carboxamide] in this work. An EC50 greater than 10 µM was found for CCNC(=O)N1CCC[C@@]2(CNS(=O)(=O)N2)[C@@H]1Cc1cccc(-c2ccccc2)c1 (racemic) [Example 30, (CIS)-6-({[1,1′-biphenyl]-3-yl}methyl)-N-ethyl-2,2-dioxo-2λ^6-thia-1,3,7-triazaspiro[4.5]decane-7-carboxamide] in this work. An EC50 of less than 0.1 µM was found for CCNC(=O)N1CCCC2(CCCC(=O)N2)C1CO[C@H]1CC[C@@H](c2ccccc2)CC1 (mixture of isomers) [Example 33, rel-(6S,7R)-N-ethyl-2-oxo-7-({[(CIS)-4-phenylcyclohexyl]oxy}methyl)-1,8-diazaspiro[5.5]undecane-8-carboxamide] in this work. An EC50 of 0.1 to 1 µM was found for CCNC(=O)N1CCCC2(COCS(=O)(=O)N2)C1CO[C@H]1CC[C@@H](c2ccccc2)CC1 (mixture of isomers) [Example 36, rel-(6S,7R)-N-ethyl-2,2-dioxo-7-({[(CIS)-4-phenylcyclohexyl]oxy}methyl)-4-oxa-2λ^6-thia-1,8-diazaspiro[5.5] undecane-8-carboxamide] in this work. An EC50 of 0.1 to 1 µM was found for CCNC(=O)N1CCCC2(CCCS(=O)(=O)N2)C1CO[C@H]1CC[C@@H](c2ccccc2)CC1 (mixture of isomers) [Example 37, rel-(6R,7R)-N-ethyl-2,2-dioxo-7-({[(CIS)-4-phenylcyclohexyl]oxy}methyl)-2λ^6-thia-1,8-diazaspiro[5.5] undecane-8-carboxamide] in this work. An EC50 of 0.1 to 1 µM was found for CCNC(=O)N1CCCC2(COCCS(=O)(=O)N2)C1CO[C@H]1CC[C@@H](c2ccccc2)CC1 (mixture of isomers) [Example 38, rel-(1R,6S)-N-ethyl-8,8-dioxo-1-({[(CIS)-4-phenylcyclohexyl]oxy}methyl)-11-oxa-8λ^6-thia-2,7-diazaspiro[5.6]dodecane-2-carboxamide] in this work. An EC50 of 0.1 to 1 µM was found for CN1CC(=O)NC2(CCCN(C(=O)OCC(F)F)C2CO[C@H]2CC[C@@H](c3ccccc3)CC2)C1 (mixture of isomers) [Example 56, 2,2-difluoroethyl-rel-(6R,7R)-4-methyl-2-oxo-7-({[(CIS)-4-phenylcyclohexyl]oxy}methyl)-1,4,8-triazaspiro [5.5]undecane-8-carboxylate] in this work. An EC50 greater than 10 µM was found for CN1CCC2(CCCN(C(=O)OCC(F)F)C2CO[C@H]2CC[C@@H](c3ccccc3)CC2)NC1=O (mixture of isomers) [Example 57, 2,2-difluoroethyl-rel-(6R,7R)-3-methyl-2-oxo-7-({[(CIS)-4-phenylcyclohexyl]oxy}methyl)-1,3,8-triazaspiro [5.5]undecane-8-carboxylate] in this work. An EC50 of 0.1 to 1 µM was found for O=C1NC2(CCCN(C(=O)OCC(F)F)C2CO[C@H]2CC[C@@H](c3ccccc3)CC2)CCO1 (mixture of isomers) [Example 65, 2,2-difluoroethyl-rel-(6R,7R)-2-oxo-7-({[(CIS)-4-phenylcyclohexyl]oxy}methyl)-3-oxa-1,8-diazaspiro[5.5] undecane-8-carboxylate] in this work. An EC50 greater than 10 µM was found for O=C1NC2(CCCN(CC(F)(F)F)C2CO[C@H]2CC[C@@H](c3ccccc3)CC2)CCO1 (mixture of isomers) [Example 68, rel-(6R,7R)-7-({[(CIS)-4-phenylcyclohexyl]oxy}methyl)-8-(2,2,2-trifluoroethyl)-3-oxa-1,8-diazaspiro[5.5] undecan-2-one] in this work. An EC50 of 1 to 10 µM was found for CCNC(=O)N1C[C@@H](C)C2(COCC(=O)N2)C1Cc1cccc(-c2cc(F)cc(F)c2)c1F (mixture of isomers) [Example 70, rel-(1S,5S)-(4S)-N-ethyl-4-methyl-7-oxo-1-({2,3′,5′-trifluoro-[1,1′-biphenyl]-3-yl}methyl)-9-oxa-2,6-diazaspiro[4.5]decane-2-carboxamide] in this work. An EC50 of 0.1 to 1 µM was found for O=C1COCC2(CCN(C(=O)[C@H]3C[C@@H](F)C3)C2Cc2cccc(-c3cc(F)cc(F)c3)c2F)N1 (mixture of isomers) [Example 71, rel-(1S,5S)-2-[(1s,3s)-3-fluorocyclobutanecarbonyl]-1-({2,3′,5′-trifluoro-[1,1′-biphenyl]-3-yl}methyl)-9-oxa-2,6-diazaspiro[4.5]decan-7-one] in this work. An EC50 of 0.1 to 1 µM was found for CCNC(=O)N1CCCC2(COCC(=O)N2)C1COC1CCN(c2ncc(F)cn2)CC1 (racemic) [Example 76, rel-(6S,7R)-N-ethyl-7-({[1-(5-fluoropyrimidin-2-yl)piperidin-4-yl]oxy}methyl)-2-oxo-4-oxa-1,8-diazaspiro[5.5]undecane-8-carboxamide] in this work. An EC50 of 1 to 10 µM was found for O=C1COCC2(CCCN(C(=O)OCC(F)F)C2COC2CCN(c3ncc(F)cn3)CC2)N1 (racemic) [Example 77, 2,2-difluoroethyl-rel-(6S,7R)-7-({[1-(5-fluoropyrimidin-2-yl)piperidin-4-yl]oxy}methyl)-2-oxo-4-oxa-1,8-diazaspiro[5.5]undecane-8-carboxylate] in this work. An EC50 of 0.1 to 1 µM was found for O=C1COCC2(CCCN(C(=O)[C@H]3C[C@@H](F)C3)C2COC2CCN(c3ncc(F)cn3)CC2)N1 (mixture of isomers) [Example 78, rel-(6S,7R)-8-(3-fluorocyclobutanecarbonyl)-7-({[1-(5-fluoropyrimidin-2-yl)piperidin-4-yl]oxy}methyl)-4-oxa-1,8-diazaspiro[5.5]undecan-2-one] in this work. An EC50 of less than 0.1 µM was found for CCNC(=O)N1CCCC2(COC(F)C(=O)N2)C1CO[C@H]1CC[C@@H](c2ccccc2)CC1 (relative stereo) [Example 41, rel-(6S,7R)-N-ethyl-3-fluoro-2-oxo-7-({[(CIS)-4-phenylcyclohexyl]oxy}methyl)-4-oxa-1,8-diazaspiro[5.5] undecane-8-carboxamide] in this work. An EC50 of less than 0.1 µM was found for CCNC(=O)N1CCC[C@@]2(COCCC(=O)N2)[C@@H]1CO[C@H]1CC[C@@H](c2ccccc2)CC1 (relative stereo) [Example 55, rel-(1R,6S)-N-ethyl-8-oxo-1-({[(CIS)-4-phenylcyclohexyl]oxy}methyl)-11-oxa-2,7-diazaspiro[5.6]dodecane-2-carboxamide] in this work.
